According to patent US20250195468A1, “METHODS AND COMPOSITIONS FOR TREATING COLORECTAL CANCER WITH INDOXYL SULFATE” (National Institute of Immunology, priority 2023, published 2025):
Counter-ions that a name gives are not always drawn.

Columns and labels:
[1] = test system: HT-29 cells; experiment: Cell viability by MTT assay; type: cell-based, human; details: for viability at 10000 µM: Homo sapiens, HT-29, 10 mM, untreated = 100%
Procedure: (§1) Human colon epithelial adenocarcinoma cell lines, HT-29 and HCT-116 (procured from ATCC), are commonly utilized for CRC research. HT-29 cells were cultured in McCoy 5A media (Gibco) supplemented with 10% heat-inactivated FBS (Gibco) and penicillin-streptomycin (Sigma-Aldrich: Merck KGaA, Germany). On the other hand, HCT-116 cells were cultured in Dulbecco's modified Eagle's medium-F12 nutrient mixture (DMEM-F12: Gibco) supplemented with 10% heat-inactivated FBS (Gibco) and penicillin-streptomycin (Sigma-Aldrich: Merck KGaA, Germany). The cells were incubated in a humidified incubator at 37° C. with 5% CO2.
(§2) To evaluate the impact of IS treatment, cell viability was assessed using Thiazolyl Blue Tetrazolium Bromide (MTT) dye. HT-29 and HCT-116 cells were seeded at a density of 3000 cells per well in a 96-well plate. After 24 hours of seeding, the cells were exposed to various concentrations of IS, including 0.018 mM, 0.037 mM, 0.075 mM, 0.15 mM. 0.31 mM, 0.62 mM. 1.25 mM, 2.5 mM, 5 mM, and 10 mM. Triplicate wells were treated with IS for three different incubation periods: 24 hours, 48 hours, and 72 hours. After the respective incubation periods. 20 μl of MTT dye (5 mg/ml) was added to each well and incubated for 3 hours. The yellow MTT dye is converted into purple formazan crystals by the mitochondrial succinate dehydrogenase enzyme, NAD (P) H. Following the incubation, 100 μl of dimethyl sulphoxide (DMSO) was added to dissolve the formazan crystals. Formazan crystal dissolve immediately after adding DMSO, so taken the reading just after adding the DMSO. The intensity of the purple color is directly proportional to cell viability. Absorbance was measured at 570 nm using a Multiskan Sky microplate spectrophotometer (Thermo Scientific). Non-treated cells served as controls and were considered 100% viable.

[2] = test system: HCT-116 cells; experiment: Cell viability by MTT assay; type: cell-based, human; details: for viability at 10000 µM: Homo sapiens, HCT-116, 10 mM, untreated = 100%
Procedure: as §1, §2

[3] = test system: inflammatory cytokines IL-17A, IL-1β and TNF-α; experiment: Cytokine study (ELISA of blood samples); type: in vivo, mice; details: IP and IR, zero, 1 month, 2 month
Procedure: Each group consisted of six mice. […] For the cytokine study, blood samples were collected from the mice. The cytokines of interest, IL-1β, TNF-α, and IL-17A, were analyzed in all groups at three different time points: baseline (time point zero), one month, and two months. The analysis was performed using an ELISA kit from R&D Systems. The experimental procedure for cytokine study followed the instructions provided with the kit. In summary, each well of the ELISA plate was coated with a specific monoclonal antibody against the respective cytokines. Then, 50 ul of standard, control, and sample were added to the appropriate wells. The plate was incubated at room temperature (RT) for 2 hours. After incubation, each well was washed four times with 400 ul of buffer to remove any unbound substances. Subsequently, 100 ul of the secondary antibody conjugate was added to each well and incubated at RT for another 2 hours. Following the second incubation, the wells were washed four times, and 100 ul of substrate solution was added. The plate was then incubated for 30 minutes at RT in the dark. After incubation, 100 ul of stop solution was added to each well to halt the enzymatic reaction. The optical density (OD) of the samples was measured at wavelengths of 450 nm and 570 nm within 30 minutes of adding the stop solution. To obtain the final readings, the absorbance at 570 nm was subtracted from the absorbance at 450 nm.

[4] = test system: HT-29 cells; experiment: Cell cycle assay, PI flow cytometry; type: cell-based, human; details: HT-29, 48 hours, 5 mM and 10 mM (not resolved); increased from 14.2±0.5
Procedure: (§3) The evaluation of the effect of IS on the progression of HCT-116 and HT-29 cell cycle assay involved analysing the G0/G1 phase, Synthesis(S) phase, and G2/M phase. Cells were initially cultured in a 6-well plate with a seeding density of (2×10^5) cells/well in duplicate. After 24 hours of seeding, the cells were treated with varying concentrations of IS (1.25 mM, 5 mM, and 10 mM). Following a 48-hour processing period, the cells were detached using trypsin and washed twice with refrigerated PBS. The resulting cell pellet was then dissolved in 200 ul of chilled PBS and fixed by adding 800 ul of 70% ethanol dropwise. The samples were stored at −20° C. overnight for later use. After the overnight incubation, the cells were centrifuged at 2000 rpm for 5 minutes at 4° C. The pellet was dissolved in 300 ul of PBS, 50 ul of RNase A (100 ug/ml), and 35 ul of Triton X-100 (0.1%), and incubated at 37° C. for 30 minutes. Subsequently, 20 ul of PI was added from a stock solution of 500 μg/ml, and the samples were incubated in the dark for an additional 30 minutes. Flow cytometry (BD Biosciences, FACS Verse, Germany) was employed to measure PI staining in 1×10^3 cells. The Flow Jo software was utilized for the analysis of cell distribution across the different phases of the cell cycle.

[5] = test system: HCT-116 cells; experiment: Cell cycle assay, PI flow cytometry; type: cell-based, human; details: HCT-116, 48 hours, 5 mM and 10 mM (not resolved); increased from 18.1±1.99
Procedure: as §3

[6] = test system: HT-29 cells; experiment: Apoptosis assay, Annexin V-FITC/PI flow cytometry; type: cell-based, human; details: for apoptotic percentage: 48 hours, untreated 3%
Procedure: (§4) The apoptotic effect of IS was evaluated on HCT-116 and HT-29 cells using the propidium iodide (PI)/Annexin V-fluorescein isothiocyanate (FITC) dual staining kit (ab14085: Abcam, USA). Duplicate wells of cells were cultured at a density of 3×10^5 cells per well in 6-well plates. After 24 hours of seeding, the cells were treated with IS at concentrations of 1.25 mM, 5 mM, and 10 mM. Following a 48-hour treatment period, the cells were harvested using trypsin and washed twice with PBS. After the washing steps, the cells were resuspended in 1 ml of fresh media and counted at each concentration using a hematocytometer. From each concentration, 2×10^5 cells were taken and dissolved in 500 μl of binding buffer, 5 μl of PI, and 5 μl of Annexin V-FITC. The cells were then incubated in the dark at room temperature for 30 minutes. Subsequently, the cells were analyzed for apoptosis using flow cytometry (BD Biosciences, FACS Canto™ Flow Cytometer, Germany) at 488 nm. Untreated cells were used as controls for comparison.

[7] = test system: HCT-116 cells; experiment: Apoptosis assay, Annexin V-FITC/PI flow cytometry; type: cell-based, human; details: for apoptotic percentage: 48 hours, untreated 3%
Procedure: as §4

[8] = 10 mM, 48-hour treatment, stated for cells in general

**Q.** Which results are given for `O=S(=O)(O)Oc1c[nH]c2ccccc12` [IS, Indoxyl Sulfate]?
**A.** cell viability ([1]; 0.62 mM, cell line not given): cell viability unexpectedly increased; viability at 10000 µM ([1]; 24 hours): 41%; viability at 10000 µM ([1]; 48 hours): 30%; viability at 10000 µM ([1]; 72 hours): 17%; cell viability ([2]; 0.62 mM, cell line not given): cell viability unexpectedly increased; viability at 10000 µM ([2]; 24 hours): 30%; viability at 10000 µM ([2]; 48 hours): 7%; viability at 10000 µM ([2]; 72 hours): 4%; level of IL-1β vs control groups [3]: no significant differences; level of IL-17A vs control groups [3]: no significant differences; level of TNF-α vs control groups [3]: no significant differences; number of cells in the G2/M phase [4]: 17.3±0.7; number of cells in the G2/M phase [5]: 22.7±3.2; increase in cell apoptosis compared to the control [6, 8]: 10%; apoptotic percentage ([6]; HT-29, 5 mM): 8%; apoptotic percentage ([6]; HT-29, 10 mM): 12%; increase in cell apoptosis compared to the control [7, 8]: 10%; apoptotic percentage ([7]; HCT-116, 5 mM): 9%; apoptotic percentage ([7]; HCT-116, 10 mM): 13%
